Results on nine molecules are retold here after patent US12678509B2, “Inhibitor of apoptosis (IAP) protein antagonists” (Sanford Burnham Prebys Medical Discovery Institute, priority 2019, dated 2026).

One assay has as its system MOLM 13. Kind of assay: Cell viability (CellTiter-Glo), 6-day compound treatment. The class given is cell-based, Human. Particulars: Homo sapiens, MOLM-13, 144 h, read-out: MOLM 13 Viability 6 d IC50. As to the method: The compound 18a was tested in 16 different cell lines. For 6-day compound treatment 1700 cells per well were plated in a 384-well plate (Corning #781098) and incubated overnight at 37° C./5% CO2. The following day, compounds in 10-fold dilutions were added to the plates and the plates were incubated for 6 days. Afterwards, 20 μL CellTiter-Glo reagent (Promega, #G7570) was added to each well outside of the incubator and the plates were read for luminescence on a Spark® multimode microplate reader (Tecan). Data was fit in GraphPad Prism 8 to a nonlinear regression curve to determine the IC50 of the compounds. […]

Assay [1] deals with latently infected cell line Jurkat 2D10. Kind of assay: HIV Jurkat 2D10 cells GFP+ assay (reversal of HIV latency). It counts as cell-based. Particulars: Homo sapiens, Jurkat, 48 h, read-out: Jurkat 2D10 GFP+ EC50. As to the method:
Several compounds (Table 5) were tested for their efficacy in the reversal of HIV latency in the latently infected cell line Jurkat 2D10. Jurkat 2D10 cells were treated with different doses of the compounds, or one of the following compounds: BV-6, SM-164, Birinapant, LCL-161, GDC-0152, AT-406 for 48 hours. Reversal of HW latency was evaluated by analyzing GFP expression using flow cytometry. Induction of GFP expression was compared to baseline GFP levels detected in the absence of treatment.

The next assay has as its target BIR3 domain of cIAP1 (Homo sapiens, UniProt Q13490). Kind of assay: Fluorescence polarization assay. It counts as binding. The following applies: SMAC-FITC probe, Ki calculated from IC50. As to the method:
Binding of compounds to ML-IAP and BIR3 domain of cIAP1, cIAP2 and XIAP was determined by fluorescence polarization. Assay buffer was 100 mM KH2PO4 at pH 7.5, 50 μM ZnSO4, 1 mM TCEP (Tris(2-carboxyethyl)phosphine hydrochloride) and 50 nM SMAC-FITC probe (AbuRPF-K(5-Fam)-NH2) as described by Z. Nikolovska-Coleska et al.^9. cIAP1 and XIAP were present at 800 nM while cIAP2 and MLIAP were present at 1.5 μM. Compounds in 3-fold dilutions were added to the plates ranging from 30 μM to 1.5 nM. Assays were run in 384-well black plates read (Greiner Bio-One #784076) in an Analyst in fluorescence polarization mode with excitation at 485 nm and emission at 535 nm. Data was fit to a nonlinear regression curve in GraphPad Prism 8 to determine the IC50 values of the compounds. Ki's were then calculated from the IC50 values using equation: Ki=[I]50/([L]50/Kd+[P]0/Kd+1) formulated by Z. Nikolovska-Coleska et al.

Another assay has as its system SKOV-3. Kind of assay: Cell viability (CellTiter-Glo), 48 hrs. It counts as cell-based. The following applies: Homo sapiens, SK-OV-3, 48 h, read-out: SKOV-3 Viability 48 h IC50. The protocol:
One thousand seven hundred cells per well were plated in a 384 well plate and incubated overnight at 37° C./5% CO2. The following day, compounds in 10-fold dilutions were added to the plates and the plates returned to the incubator for 48 hrs. 48 hrs later, plates were removed to the bench and 20 μL CellTiter-Glo reagent was added to each well and the plates were read for luminescence on a Spark® multimode microplate reader (Tecan). Data were fit using PRISM to a nonlinear regression curve to determine the IC50 of the compounds.
In general terms: In ATP-based viability assays light output follows the ATP content of the culture.

The next assay deals with NB-4. Kind of assay: Cell viability (CellTiter-Glo). Particulars: Homo sapiens, NB-4, 72 h, read-out: NB-4 Viability 72 h IC50. The class given is cell-based, Human. The protocol: The compound 18a was tested in 16 different cell lines. For 6-day compound treatment 1700 cells per well were plated in a 384-well plate (Corning #781098) and incubated overnight at 37° C./5% CO2. […] Afterwards, 20 μL CellTiter-Glo reagent (Promega, #G7570) was added to each well outside of the incubator and the plates were read for luminescence on a Spark® multimode microplate reader (Tecan). Data was fit in GraphPad Prism 8 to a nonlinear regression curve to determine the IC50 of the compounds. […]

BIR3 domain of cIAP1, sequence (Q13490 253-363 limits assumed): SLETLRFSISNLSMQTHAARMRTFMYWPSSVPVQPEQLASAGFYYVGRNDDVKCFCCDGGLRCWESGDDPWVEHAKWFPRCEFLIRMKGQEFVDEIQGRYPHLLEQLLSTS

Consider `CN[C@@H](C)C(=O)N[C@H]1CCS[C@H]2CC(C)(C)[C@@H](C(=O)N[C@H]3c4ccccc4C[C@H]3OCC#Cc3cccc(C#CCO[C@@H]4Cc5ccccc5[C@@H]4NC(=O)[C@H]4N5C(=O)[C@@H](NC(=O)[C@H](C)NC)CCS[C@H]5CC4(C)C)c3)N2C1=O` [Compound 18d], for which the IC50 – broadly, the concentration that inhibits the measured activity by half – in the assay with MOLM 13 was 100 to 1000 nM; with SKOV-3 it was below 10 nM; in the assay with NB-4, below 10 nM. Besides, the EC50 (in general, the concentration giving half of the maximal effect) in assay [1] is below 1 nM. In addition, on BIR3 domain of cIAP1, the Ki (commonly the dissociation constant of the complex between target and ligand, obtained from inhibition or displacement) was at most 50 nM.

Turning to `CN[C@@H](C)C(=O)N[C@H]1CCS[C@H]2CC(C)(C)[C@@H](C(=O)N[C@H]3c4ccccc4C[C@H]3OCc3ccc(-c4ccc(CO[C@@H]5Cc6ccccc6[C@@H]5NC(=O)[C@H]5N6C(=O)[C@@H](NC(=O)[C@H](C)NC)CCS[C@H]6CC5(C)C)cc4)cc3)N2C1=O` [Compound 18f, (2S)-1-{[(4S,7S,9aS)-7-{[(1S,2R)-2-({4-[4-({[(1S,2R)-1-({[(4S,7S,9aS)-8,8-Dimethyl-4-{[(2S)-2-(methylammonio)propanoyl]amino}-5-oxooctahydropyrrolo[2,1-b][1,3]thiazepin-7-yl]carbonyl}amino)-2,3-dihydro-1H-inden-2-yl]oxy}methyl)phenyl]benzyl}oxy)-2,3-dihydro-1H-inden-1-yl]carbamoyl}-8,8-dimethyl-5-oxooctahydropyrrolo[2,1-b][1,3]thiazepin-4-yl]amino}-N-methyl-1-oxopropan-2-ammonium dichloride], the IC50 in the assay on MOLM 13 is 100 to 1000 nM; in the assay on SKOV-3, below 10 nM; in the assay on NB-4, below 10 nM. Moreover, the EC50 in assay [1] lay in the range of 1 to 10 nM. Further, at BIR3 domain of cIAP1, the Ki was 50 to 100 nM.

Regarding `CN[C@@H](C)C(=O)N[C@H]1CCS[C@H]2CC(C)(C)[C@@H](C(=O)N[C@H]3c4ccccc4C[C@H]3OCCS(=O)(=O)CCO[C@@H]3Cc4ccccc4[C@@H]3NC(=O)[C@H]3N4C(=O)[C@@H](NC(=O)[C@H](C)NC)CCS[C@H]4CC3(C)C)N2C1=O` [Compound 18h, (2S)-1-{[(4S,7S,9aS)-7-{[(1S,2R)-2-{2-[(2-{[(1S,2R)-1-({[(4S,7S,9aS)-8,8-Dimethyl-4-{[(2S)-2-(methylammonio)propanoyl]amino}-5-oxooctahydropyrrolo[2,1-b][1,3]thiazepin-7-yl]carbonyl}amino)-2,3-dihydro-1H-inden-2-yl]oxy}ethyl)sulfonyl]ethoxy}-2,3-dihydro-1H-inden-1-yl]carbamoyl}-8,8-dimethyl-5-oxooctahydropyrrolo[2,1-b][1,3]thiazepin-4-yl]amino}-N-methyl-1-oxopropan-2-ammonium dichloride], the EC50 in assay [1] lay in the range of 10 to 100 nM. Moreover, on BIR3 domain of cIAP1, the Ki was at most 50 nM. Besides, the IC50 in the assay on SKOV-3 was 10 to 100 nM; with NB-4, below 10 nM.

With `CN[C@@H](C)C(=O)N[C@H]1CCS[C@H]2CC(C)(C)[C@@H](C(=O)N[C@H]3c4ccccc4C[C@H]3OCC#CCO[C@@H]3Cc4ccccc4[C@@H]3NC(=O)[C@H]3N4C(=O)[C@@H](NC(=O)[C@H](C)NC)CCS[C@H]4CC3(C)C)N2C1=O` [Compound 18j], the concentration for half-maximal inhibition (IC50) is 1000 to 10000 nM with MOLM 13, 10 to 100 nM with SKOV-3 and below 10 nM with NB-4. The EC50 in assay [1] is 1000 to 10000 nM. Further, at BIR3 domain of cIAP1, the Ki is at most 50 nM.

Consider `CNC(C)(C)C(=O)N[C@H]1CCS[C@H]2CC(C)(C)[C@@H](C(=O)N[C@H]3c4ccccc4C[C@H]3OCC#CC#CCO[C@@H]3Cc4ccccc4[C@@H]3NC(=O)[C@H]3N4C(=O)[C@@H](NC(=O)C(C)(C)NC)CCS[C@H]4CC3(C)C)N2C1=O` [Compound 18k, 1-{[(4S,7S,9aS)-7-({(1S,2R)-2-[(6-{[(1S,2R)-1-({[(4S,7S,9aS)-8,8-Dimethyl-4-{[2-methyl-2-(methylammonio)propanoyl]amino}-5-oxooctahydropyrrolo[2,1-b][1,3]thiazepin-7-yl]carbonyl}amino)-2,3-dihydro-1H-inden-2-yl]oxy}hexa-2,4-diyn-1-yl)oxy]-2,3-dihydro-1H-inden-1-yl}carbamoyl)-8,8-dimethyl-5-oxooctahydropyrrolo[2,1-b][1,3]thiazepin-4-yl]amino}-N,2-dimethyl-1-oxopropan-2-ammonium dichloride], for which the IC50 in the assay with MOLM 13 lay within 1000 to 10000 nM; in the assay on SKOV-3, 100 to 1000 nM; with NB-4 it was 10 to 100 nM. Moreover, the EC50 in assay [1] is above 10000 nM. For the same molecule, at BIR3 domain of cIAP1, the Ki was 50 to 100 nM.

As for `CN[C@@H](C)C(=O)N[C@H]1CCS[C@H]2CC(C)(C)[C@@H](C(=O)N[C@H](CCC(=O)NCCNC(=O)CC[C@@H](NC(=O)[C@H]3N4C(=O)[C@@H](NC(=O)[C@H](C)NC)CCS[C@H]4CC3(C)C)c3ccccc3)c3ccccc3)N2C1=O` [Compound 18l, (2S)-1-{[(4S,7S,9aS)-74{(1R)-4-[(2-{[(4R)-4-({[(4S,7S,9aS)-8,8-Dimethyl-4-{[(2S)-2-(methylammonio)propanoyl]amino}-5-oxooctahydropyrrolo[2,1-b][1,3]thiazepin-7-yl]carbonyl}amino)-4-phenylbutanoyl]amino}ethyl)amino]-4-oxo-1-phenylbutyl}carbamoyl)-8,8-dimethyl-5-oxooctahydropyrrolo[2,1-b][1,3]thiazepin-4-yl]amino}-N-methyl-1-oxopropan-2-ammonium dichloride], the EC50 in assay [1] is 100 to 1000 nM. The Ki on BIR3 domain of cIAP1 is at most 50 nM. Moreover, the IC50 with SKOV-3 was in the range of 100 to 1000 nM; in the assay on NB-4, 10 to 100 nM.

Turning to `C=CCC1(CC=C)C[C@@H]2SCC[C@H](NC(=O)[C@H](C)NC)C(=O)N2[C@@H]1C(=O)N[C@H]1c2ccccc2C[C@H]1OCC#CC#CCO[C@@H]1Cc2ccccc2[C@@H]1NC(=O)[C@H]1N2C(=O)[C@@H](NC(=O)[C@H](C)NC)CCS[C@H]2CC1(CC=C)CC=C` [Compound 18n, (2S)-2-{[(4S,7S,9aS)-7-{[(1S,2R)-2-[(6-{[(1S,2R)-1-[(4S,7S,9aS)-4-[(2S)-2-(Methylamino)propanamido]-5-oxo-8,8-bis(prop-2-en-1-yl)-octahydropyrrolo[2,1-b][1,3]thiazepine-7-amido]-2,3-dihydro-1H-inden-2-yl]oxy}hexa-2,4-diyn-1-yl)oxy]-2,3-dihydro-1H-inden-1-yl]carbamoyl}-5-oxo-8,8-bis(prop-2-en-1-yl)-octahydropyrrolo[2,1-b][1,3]thiazepin-4-yl]carbamoyl}-2-(methylazaniumyl)ethanide dichloride], the IC50 in the assay with MOLM 13 lay within 100 to 1000 nM; in the assay on SKOV-3, 10 to 100 nM. For the same molecule, the EC50 in assay [1] fell in the range of 10 to 100 nM. In addition, at BIR3 domain of cIAP1, the Ki was 50 to 100 nM.

As for `CN[C@@H](C)C(=O)N[C@H]1CCS[C@H]2C[C@H](O)[C@@H](C(=O)N[C@H]3c4ccccc4C[C@H]3OCC#CC#CCO[C@@H]3Cc4ccccc4[C@@H]3NC(=O)[C@@H]3[C@@H](O)C[C@@H]4SCC[C@H](NC(=O)[C@H](C)NC)C(=O)N43)N2C1=O` [Compound 18p, [(1S)-1-{[(4S,7S,8S,9aS)-7-{[(1S,2R)-2-[(6-{[(1S,2R)-1-[(4S,7S,8S,9aS)-8-Hydroxy-4-[(2S)-2-(methylazaniumyl)propanamido]-5-oxo-octahydropyrrolo[2,1-b][1,3]thiazepine-7-amido]-2,3-dihydro-1H-inden-2-yl]oxy}hexa-2,4-diyn-1-yl)oxy]-2,3-dihydro-1H-inden-1-yl]carbamoyl}-8-hydroxy-5-oxo-octahydropyrrolo[2,1-b][1,3]thiazepin-4-yl]carbamoyl}ethyl](methyl)azanium dichloride], in assay [1], the EC50 was 100 to 1000 nM.

Regarding `CN[C@@H](C)C(=O)N[C@H]1CCS[C@H]2CC3(CCCC3)[C@@H](C(=O)N[C@H]3c4ccccc4C[C@H]3OCC#CC#CCO[C@@H]3Cc4ccccc4[C@@H]3NC(=O)[C@H]3N4C(=O)[C@@H](NC(=O)[C@H](C)NC)CCS[C@H]4CC34CCCC4)N2C1=O` [Compound 18r], the EC50 in assay [1] lay within 10 to 100 nM.
